From patent publication US11731980B1, “Furo[3,4-b]quinolone compounds as antibacterial agents” (KING FAISAL UNIVERSITY, priority 2023, dated 2023) come the findings set out here.

In brackets after ≈: the same amount, converted by molar mass. Read-outs that look alike come from different tables or passages of the source. Some results are limits rather than exact numbers.

Assay [1] has as its system Staphylococcus aureus ATCC 29213. As to the kind of experiment: In vitro antibacterial activity, CLSI M07-A10 dilution (MIC). Type of assay: cell-based. The note with it: ATCC29213.
The subject of assay [2] is Staphylococcus aureus ATCC BAA-1556 (MERSA resistant). The description is as above. Type of assay: cell-based. The note with it: ATCCBAA1556.
The test system of assay [3] is Staphylococcus epidermidis. Described as above. Type of assay: cell-based.
Assay [4] relates to Bacillus subtilis MTCC 441. The assay is described as above. Type of assay: cell-based. The note with it: MTCC441.
For assay [5], the system named is Enterococcus faecium ATCC 35667. The description is as above. It counts as cell-based. The note with it: ATCC35667.
Assay [6] relates to Enterococcus faecium ATCC 51559 (VRE resistant). The assay is described as above. It counts as cell-based.
Assay [7] concerns Klebsiella pneumonia MTCC 618. Described as above. It counts as cell-based. To be noted: Klebsiella pneumoniae, MTCC618.
The subject of assay [8] is Escherichia coli MTCC 443. The description is as above. To be noted: MTCC443. Type of assay: cell-based.
For assay [9], the system named is Pseudomonas aeruginosa MTCC 741. Described as above. Type of assay: cell-based. The note with it: MTCC741.
Assay [10] has as its system Mycobacterium tuberculosis H37Rv strain. The assay is described as follows: Anti-tubercular alamar blue microplate assay (MIC). Type of assay: cell-based. To be noted: 168 h, M. tuberculosis H37Rv, seven days at 37° C., read-out: anti-mycobacterial activity (MIC).
A further assay concerns the target T1, DNA gyrase from E. coli (Escherichia coli, UniProt P0AES4+P0AES6).
T1 construct: purchased Inspiralis
The assay is described as follows: Inhibitory activity on E. coli DNA gyrase (Inspiralis assay). Type of assay: biochemical. As for the experimental part:
Inhibitory potencies were investigated utilizing the Inspiralis assay on streptavidin-coated 96-well microtiter plates. First, the plates were rehydrated with buffer (20 mM Tris-HCl with pH 7.6, 0.01% w/v BSA, 0.05% v/v Tween 20, 137 mM NaCl) and the biotinylated oligonucleotide was then immobilized. After washing off the unbound oligonucleotide, the enzyme test was performed. The reaction volume of 30 μL in buffer (35 mM Tris×HCl with pH 7.5, 4 mM MgCl2, 24 mM KCl, 2 mM DTT, 1.8 mM spermidine, 1 mM ATP, 6.5% w/v glycerol, 0.1 mg/mL albumin) contained 1.5 U of DNA gyrase from E. coli, 0.75 μg of relaxed pNO1 plasmid, and 3 μL solution of the inhibitor in 10% DMSO and 0.008% Tween 20. Reaction solutions were incubated at 37° C. for 30 min. After that, the TF buffer (50 mM NaOAc with pH 5.0, 50 mM NaCl and 50 mM MgCl2) was added to terminate the enzymatic reaction. After additional incubation for 30 min at rt, during which biotinoligonucleotide-plasmid triplex was formed, the unbound plasmid was washed off using TF buffer and SybrGOLD in T10 buffer (10 mM Tris HCl with pH 8.0 and 1 mM EDTA) was added. The fluorescence was measured with a microplate reader (BioTek Synergy H4, excitation: 485 nm, emission: 535 nm). Initial screening was done at 100 or 10 μM concentration of inhibitors. […] GraphPad Prism software was used to calculate the IC50 values. […]

The term MIC denotes the smallest concentration in the dilution series that meets the test's criterion for growth inhibition. As a reminder, the IC50 is the midpoint of a concentration-inhibition curve.

T1 sequence (P0AES4 whole entry, one chain of several): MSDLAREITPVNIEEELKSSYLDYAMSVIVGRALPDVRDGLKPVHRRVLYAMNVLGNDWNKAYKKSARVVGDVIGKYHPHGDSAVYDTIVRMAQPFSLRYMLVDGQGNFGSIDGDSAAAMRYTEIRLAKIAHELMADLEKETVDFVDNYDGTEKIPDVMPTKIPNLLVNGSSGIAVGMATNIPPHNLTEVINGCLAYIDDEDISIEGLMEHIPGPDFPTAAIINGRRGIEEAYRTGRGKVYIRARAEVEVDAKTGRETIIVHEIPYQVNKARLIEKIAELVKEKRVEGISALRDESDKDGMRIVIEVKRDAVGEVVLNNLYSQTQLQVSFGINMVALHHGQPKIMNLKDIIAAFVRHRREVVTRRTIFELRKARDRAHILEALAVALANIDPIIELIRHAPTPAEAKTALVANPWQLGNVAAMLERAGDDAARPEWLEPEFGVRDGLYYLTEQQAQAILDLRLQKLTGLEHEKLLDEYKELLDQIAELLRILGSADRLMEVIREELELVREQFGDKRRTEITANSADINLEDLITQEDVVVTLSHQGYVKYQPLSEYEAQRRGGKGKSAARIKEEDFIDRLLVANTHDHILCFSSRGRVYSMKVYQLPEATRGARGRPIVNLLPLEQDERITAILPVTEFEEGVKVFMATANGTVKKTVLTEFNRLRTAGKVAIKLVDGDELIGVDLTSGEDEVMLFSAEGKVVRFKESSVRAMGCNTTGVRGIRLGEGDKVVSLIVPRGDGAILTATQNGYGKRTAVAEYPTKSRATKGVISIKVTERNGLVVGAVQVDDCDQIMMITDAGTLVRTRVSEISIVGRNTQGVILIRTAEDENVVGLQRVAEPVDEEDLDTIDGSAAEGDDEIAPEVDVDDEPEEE

Regarding `CCCCCN(C)Cc1cc(-c2c3c(nc4cc(NC(=O)C5CC5)ccc24)COC3=O)ccc1C(=O)O` [Compound 8, 4-(6-(cyclopropanecarboxamido)-1-oxo-1,3-dihydrofuro[3,4-b]quinolin-9-yl)-2-((methyl(pentyl)amino)methyl)benzoic acid], the MIC in [1] (Staphylococcus aureus ATCC 29213, read-out: MIC) is 16 µg/mL (≈ 31.9 µM); in [2] (Staphylococcus aureus ATCC BAA-1556 (MERSA resistant), read-out: MIC), 16 µg/mL (≈ 31.9 µM); in [3] (read-out: MIC), 16 µg/mL (≈ 31.9 µM); in [4] (Bacillus subtilis MTCC 441, read-out: MIC), 8 µg/mL (≈ 15.9 µM); in assay [5] (Enterococcus faecium ATCC 35667, read-out: MIC) it was 8 µg/mL (≈ 15.9 µM); in assay [6] (Enterococcus faecium ATCC 51559 (VRE resistant), read-out: MIC), 16 µg/mL (≈ 31.9 µM). The MIC in assay [7] (Klebsiella pneumonia MTCC 618, read-out: MIC) is 8 µg/mL (≈ 15.9 µM); in [8] (Escherichia coli MTCC 443, read-out: MIC) it was 16 µg/mL (≈ 31.9 µM); in assay [9] (Pseudomonas aeruginosa MTCC 741, read-out: MIC), 8 µg/mL (≈ 15.9 µM); in assay [10], 4 µg/mL (≈ 7.97 µM). Moreover, the IC50 at DNA gyrase from E. coli was found to be 550 nM.
As for `CN[C@H](CC(C)C)C(=O)N[C@H]1C(=O)N[C@@H](CC(N)=O)C(=O)N[C@H]2C(=O)N[C@H]3C(=O)N[C@H](C(=O)N[C@H](C(=O)O)c4cc(O)cc(O)c4-c4cc3ccc4O)[C@H](O)c3ccc(c(Cl)c3)Oc3cc2cc(c3O[C@@H]2O[C@H](CO)[C@@H](O)[C@H](O)[C@H]2O[C@H]2C[C@](C)(N)[C@H](O)[C@H](C)O2)Oc2ccc(cc2Cl)[C@H]1O` [Vancomycin, reference compound], the MIC was 1 µg/mL (≈ 0.69 µM) in assay [1] (Staphylococcus aureus); 1 µg/mL (≈ 0.69 µM) in assay [2] (Staphylococcus aureus); 1 µg/mL (≈ 0.69 µM) in [3]; 0.5 µg/mL (≈ 0.345 µM) in [4] (Bacillus subtilis); 0.5 µg/mL (≈ 0.345 µM) in [5] (Enterococcus faecium); above 128 µg/mL in [6] (Enterococcus faecium). The MIC in assay [7], in assay [8] (Escherichia coli) and in assay [9] (Pseudomonas aeruginosa) was above 128 µg/mL in each case.
